One series has as its system A20 cells. The series is described as follows: Gene expression (qRT-PCR) in A20 cells cultured with epigenetic enzyme inhibitors. The format is cell-based, mouse. The note with it: 72 hours; for AhR gene expression / Arnt gene expression: AzaC 2, 5, 10 μM, SAHA 0.1, 0.5, 1.0 μM, GSK126 5, 10, 15 μM, FIG. 6.
Another series deals with Ezh2 (Homo sapiens, UniProt Q15910). Conditions: cited from earlier work.

SMILES strings stand for the structures.

Sequence of Ezh2 (Q15910 whole entry, species assumed): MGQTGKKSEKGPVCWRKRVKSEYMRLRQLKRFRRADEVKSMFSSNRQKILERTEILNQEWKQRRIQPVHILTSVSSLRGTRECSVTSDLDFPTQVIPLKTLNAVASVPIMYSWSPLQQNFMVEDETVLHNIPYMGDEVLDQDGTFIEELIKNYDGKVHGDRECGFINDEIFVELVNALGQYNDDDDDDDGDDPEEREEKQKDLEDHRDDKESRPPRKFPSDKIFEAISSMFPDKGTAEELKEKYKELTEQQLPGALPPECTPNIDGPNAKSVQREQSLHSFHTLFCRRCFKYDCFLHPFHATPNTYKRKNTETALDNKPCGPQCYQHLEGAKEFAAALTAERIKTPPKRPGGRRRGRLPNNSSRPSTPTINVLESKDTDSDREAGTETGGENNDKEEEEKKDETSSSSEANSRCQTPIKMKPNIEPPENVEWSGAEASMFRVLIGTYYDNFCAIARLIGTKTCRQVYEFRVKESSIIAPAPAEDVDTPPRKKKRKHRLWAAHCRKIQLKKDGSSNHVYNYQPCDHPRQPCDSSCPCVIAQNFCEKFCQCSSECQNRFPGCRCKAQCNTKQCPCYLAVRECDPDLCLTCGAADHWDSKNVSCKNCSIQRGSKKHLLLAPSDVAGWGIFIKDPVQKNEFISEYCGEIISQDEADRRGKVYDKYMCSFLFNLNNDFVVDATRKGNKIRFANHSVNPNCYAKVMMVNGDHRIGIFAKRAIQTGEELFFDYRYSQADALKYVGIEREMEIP
Sequence of Ezh2 (O75530 whole entry partner, species assumed): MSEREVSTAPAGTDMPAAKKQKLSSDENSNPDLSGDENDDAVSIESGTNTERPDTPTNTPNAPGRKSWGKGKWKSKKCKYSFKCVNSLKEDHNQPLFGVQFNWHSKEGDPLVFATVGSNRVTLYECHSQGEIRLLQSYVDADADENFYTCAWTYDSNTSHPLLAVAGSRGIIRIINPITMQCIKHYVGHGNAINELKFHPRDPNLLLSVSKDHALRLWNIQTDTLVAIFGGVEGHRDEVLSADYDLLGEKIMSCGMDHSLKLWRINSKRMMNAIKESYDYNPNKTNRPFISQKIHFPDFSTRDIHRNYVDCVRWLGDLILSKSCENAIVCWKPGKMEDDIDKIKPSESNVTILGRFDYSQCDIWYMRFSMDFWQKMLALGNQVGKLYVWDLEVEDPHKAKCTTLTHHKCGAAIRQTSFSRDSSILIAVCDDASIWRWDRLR
Sequence of Ezh2 (Q15022 whole entry partner, species assumed): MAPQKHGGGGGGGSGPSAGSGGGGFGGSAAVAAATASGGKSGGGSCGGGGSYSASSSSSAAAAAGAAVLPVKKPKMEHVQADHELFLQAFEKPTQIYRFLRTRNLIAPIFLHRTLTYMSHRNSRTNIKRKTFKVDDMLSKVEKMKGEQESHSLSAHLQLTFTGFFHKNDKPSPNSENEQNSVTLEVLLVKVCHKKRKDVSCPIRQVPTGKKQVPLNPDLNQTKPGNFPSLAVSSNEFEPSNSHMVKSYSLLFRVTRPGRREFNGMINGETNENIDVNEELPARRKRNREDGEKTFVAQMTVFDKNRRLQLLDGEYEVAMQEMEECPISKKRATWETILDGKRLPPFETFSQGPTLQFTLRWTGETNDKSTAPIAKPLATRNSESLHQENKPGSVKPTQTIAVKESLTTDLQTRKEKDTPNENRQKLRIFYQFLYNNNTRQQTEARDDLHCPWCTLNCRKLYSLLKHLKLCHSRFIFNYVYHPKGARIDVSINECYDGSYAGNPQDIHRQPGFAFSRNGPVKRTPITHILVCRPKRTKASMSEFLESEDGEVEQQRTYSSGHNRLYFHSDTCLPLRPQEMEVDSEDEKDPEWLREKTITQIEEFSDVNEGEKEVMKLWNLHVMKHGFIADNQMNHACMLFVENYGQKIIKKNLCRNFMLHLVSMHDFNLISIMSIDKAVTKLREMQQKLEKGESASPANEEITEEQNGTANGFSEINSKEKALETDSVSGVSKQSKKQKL
Sequence of Ezh2 (Q09028 whole entry partner, species assumed): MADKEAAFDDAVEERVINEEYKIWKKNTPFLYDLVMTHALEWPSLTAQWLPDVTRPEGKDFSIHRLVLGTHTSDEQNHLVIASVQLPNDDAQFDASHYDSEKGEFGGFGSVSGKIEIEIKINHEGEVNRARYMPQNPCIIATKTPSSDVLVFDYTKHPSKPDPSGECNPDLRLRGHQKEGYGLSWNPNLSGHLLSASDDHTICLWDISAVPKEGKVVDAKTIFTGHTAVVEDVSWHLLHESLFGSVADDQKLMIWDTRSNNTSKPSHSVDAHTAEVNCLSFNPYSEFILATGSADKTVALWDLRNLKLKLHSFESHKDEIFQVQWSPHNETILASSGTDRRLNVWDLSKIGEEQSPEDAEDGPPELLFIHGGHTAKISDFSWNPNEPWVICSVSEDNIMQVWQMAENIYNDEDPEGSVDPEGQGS

Turning to `CC[C@H](C)n1cc(C)c2c(C(=O)NCc3c(C)cc(C)[nH]c3=O)cc(-c3ccc(N4CCNCC4)nc3)cc21` [GSK126, N-[(1,2-dihydro-4,6-dimethyl-2-oxo-3-pyridinyl)methyl]-3-methyl-1-[(1S)-1-methylpropyl]-6-[6-(1-piperazinyl)-3-pyridinyl]-1H-indole-4-carboxamide], in the series with A20 cells, the AhR gene expression result was “promoted the expression” and the Arnt gene expression entry is recorded as “statistically significant upregulation”.
As to `O=C(CCCCCCC(=O)Nc1ccccc1)NO` [SAHA, suberanilohydroxamic acid], in the series on A20 cells, the Cytotoxicity result is “without high cytotoxicity”, the AhR gene expression entry is “could increase the gene expression” and the Arnt gene expression result is “could increase the gene expression”.
Turning to `CCCc1cc(C)[nH]c(=O)c1CNC(=O)c1cc(-c2ccnc(N3CCN(C)CC3)c2)cc2c1cnn2C(C)C` [GSK343, N-[(1,2-dihydro-6-methyl-2-oxo-4-propyl-3-pyridinyl)methyl]-1-(1-methylethyl)-6-[2-(4-methyl-1-piperazinyl)-4-pyridinyl]-1H-indazole-4-carboxamide], the “Ki (affinity to Ezh2)” value at Ezh2 was “low nM range”.

These data come from patent publication US11992500B2, “Use of methylation inhibitors for the treatment of autoimmune diseases” (Rush University Medical Center, priority 2018, dated 2024).
